Values quoted from earlier work as cited in publication PMC12308805, “Ultrahigh-Throughput Virtual Screening Strategies against PPI Targets: A Case Study of STAT Inhibitors” (Journal of Chemical Information and Modeling, 2025).
Square brackets hold non-standard residues; d marks the D form. Peptide text beside a SMILES is read from it. * marks the point of attachment. pY = N[C@@H](Cc1ccc(OP(=O)(O)O)cc1)C(=O)O; NHBn = c1ccc(CN*)cc1

Tested on: STAT3
Conditions: cited from earlier work
In the case of `CC(=O)N[C@@H](Cc1ccc(OP(=O)(O)O)cc1)C(=O)N[C@H]1CCc2cccc3c2N(C1=O)[C@H](C(=O)N[C@@H](CCC(N)=O)C(=O)N[C@H](C(N)=O)[C@@H](C)O)C3` [CHEMBL503765], the “Type (known STAT3 active)” value is listed as “Active”.

Same assay, conditions: sheet 6QHD_actives_decoys, retrospective screening set for STAT3 SH2 domain (PDB 6QHD); decoys are presumed inactives, not tested; ref DUD-E; cited from earlier work
For `O=C(CCCCC(=O)Nc1ccc(S(=O)(=O)N2CCCCC2)cc1)Nc1ccc(S(=O)(=O)N2CCCCC2)cc1` [Decoy771], the Type is listed as “Inactive (Decoy)”. For `CCOC(=O)c1ccc(NC(=O)CCN2C(=O)/C(=C3\SC(=S)N(CCC(=O)Nc4ccc(C(=O)OCC)cc4)C3=O)SC2=S)cc1` [Decoy869], the Type is given as “Inactive (Decoy)”. In the case of `COc1cc([C@H]2c3cc(OC)c(O[C@H]4O[C@@H](CO)[C@@H](O)[C@@H](O)[C@H]4O)c(OC)c3C[C@@H](CO)[C@@H]2CO)cc(OC)c1O` [Decoy823], the Type is listed as “Inactive (Decoy)”. In the case of `COc1cc(NC(=O)CCSc2nnc(N/N=C/c3c(O)ccc4ccccc34)n2N)cc(OC)c1` [Decoy871], the Type is listed as “Inactive (Decoy)”. In the case of `CCCCN(C(=O)c1cccc(S(=O)(=O)N2CCN(C)CC2)c1)c1c(N)n(CCCC)c(=O)[nH]c1=O` [Decoy864], the Type is given as “Inactive (Decoy)”. For `COC(=O)c1[nH]c(C)c(C(=O)C2=C(O)C(=O)N(CCN3CCOCC3)[C@H]2c2cc(OC)c(OC)c(OC)c2)c1C` [Decoy873], the Type is given as “Inactive (Decoy)”. In the case of `C[C@H](N[C@H](C)c1ccc(Cl)s1)c1ccc(Cl)c(Cl)c1Cl` [Decoy730], the Type is given as “Inactive (Decoy)”. For `CCC/C=C/[C@@H](C(=O)NCS(=O)(=O)c1ccc(C)cc1)N(Cc1ccco1)C(=O)c1c(O)cccc1O` [Decoy942], the Type is given as “Inactive (Decoy)”. In the case of `C=CCOc1ccc([C@H]2C(C(=O)c3ccc(S(=O)(=O)N(C)C)cc3)=C(O)C(=O)N2CCCN(C)C)cc1OC` [Decoy790], the Type is listed as “Inactive (Decoy)”. In the case of `C=CCSc1ccccc1NC(=O)CSc1nnc(N/N=C/c2c(O)ccc3ccccc23)n1N` [Decoy924], the Type is listed as “Inactive (Decoy)”. For `O=S1(=O)CC[C@@H](NCOC(COCN[C@H]2CCS(=O)(=O)C2)COCN[C@H]2CCS(=O)(=O)C2)C1` [Decoy819], the Type is given as “Inactive (Decoy)”. For `COc1ccc(CCNc2ccc3nnc(CCNS(=O)(=O)c4ccccc4OC)n3n2)cc1OC` [Decoy899], the Type is listed as “Inactive (Decoy)”. In the case of `COc1cc(-c2nnc(SCC(=O)N/N=C/c3cc(OC)c(OC(C)=O)c(OC)c3)n2-c2ccccc2)cc(OC)c1OC` [Decoy928], the Type is listed as “Inactive (Decoy)”. For `CCNc1nc(NCC)n2c(SCC(=O)NC3=C(C(=O)OCC)[C@H]4CCC[C@@H]4S3)nnc2n1` [Decoy857], the Type is listed as “Inactive (Decoy)”. For `CC[C@H]1OC(=O)[C@@H](C)[C@@H](O[C@@H]2C[C@@](C)(OC)[C@H](O)[C@H](C)O2)[C@@H](C)[C@@H](O[C@H]2O[C@@H](C)C[C@@H](N(C)C)[C@H]2O)[C@](C)(OC)C[C@@H](C)C(=O)[C@@H](C)[C@@H](O)[C@]1(C)O` [Decoy775], the Type is given as “Inactive (Decoy)”.

Same assay, conditions: sheet 6QHD_actives_decoys; known STAT3 actives of the retrospective screening set; ref ChEMBL / literature; cited from earlier work
In the case of `CC(C)C[C@H](NC(=O)/C=C/c1ccc(OP(=O)(O)O)cc1)C(=O)N1C[C@H]2C[C@H]2[C@H]1C(=O)N[C@@H](CCC(N)=O)C(C)C` [CHEMBL573930], the “Type (known STAT3 active)” value is listed as “Active”. For `CC(C)C[C@H](NC(=O)/C=C/c1ccc(OP(=O)(O)O)cc1)C(=O)N1C[C@H]2C[C@H]2[C@H]1C(=O)N[C@@H](CCC(N)=O)C(=O)NCc1ccccc1` [CHEMBL575497], the “Type (known STAT3 active)” value is listed as “Active”. For `CC(=O)N[C@@H](Cc1ccc(OCC(=O)O)cc1)C(=O)N[C@@H](CC(C)C)C(=O)N1CCC[C@H]1C(=O)N[C@@H](CCC(N)=O)C(=O)N[C@H](C(=O)N[C@H](C(=O)O)C(C)C)[C@@H](C)O` [CHEMBL414897], the “Type (known STAT3 active)” value is listed as “Active”. For `CC(=O)N[C@@H](Cc1ccc(OP(=O)(O)O)cc1)C(=O)N[C@@H](CC(C)C)C(=O)N1CCC[C@H]1C(=O)N[C@@H](CCC(N)=O)C(=O)NCc1ccccc1` [CHEMBL194855] (Ac-[pY]LPQ-NHBn), the “Type (known STAT3 active)” value is given as “Active”.

Same assay, conditions: sheet 6QHD_actives_decoys; retrospective screening set for STAT3 SH2 domain (PDB 6QHD); […]; ref DUD-E; cited from earlier work
In the case of `COc1ccc(NS(=O)(=O)c2ccc(OC)c(NS(=O)(=O)c3ccc(C#N)cc3)c2)cc1` [Decoy542], the Type is given as “Inactive (Decoy)”.

Same assay, conditions: sheet 6QHD_actives_decoys; retrospective screening set for STAT3 SH2 domain (PDB 6QHD); decoys generated with DUD-E and presumed inactive, not tested; ref DUD-E; cited from earlier work
For `CC(C)(CC(=O)O)CC(=O)N1Cc2nc[nH]c2C[C@H]1c1nc(-c2ccc(F)c(Cl)c2)no1` [Decoy417], the Type is given as “Inactive (Decoy)”. For `CC[C@H](C)[C@@H](NC(=O)CNC(=O)CCc1c(C)c2cc3c(C)coc3c(C)c2oc1=O)C(=O)O` [Decoy650], the Type is given as “Inactive (Decoy)”. In the case of `COc1ccc([N+](=O)[O-])cc1NC(=S)N[C@@H](NC(=O)c1ccco1)C(Cl)(Cl)Cl` [Decoy690], the Type is given as “Inactive (Decoy)”. In the case of `C=C[C@H]1[C@H](O[C@H]2O[C@@H](CO)[C@@H](O)[C@@H](O)[C@@H]2O)OC=C(C(=O)OC)[C@H]1CCOC(=O)c1cc(O)c(O)c(O)c1` [Decoy699], the Type is listed as “Inactive (Decoy)”. For `COC(=O)/C(=N/NC(C)(C)C)[C@@H](C(=O)C(=O)Nc1cc(C)ccc1C)c1nc2ccccc2[nH]c1=O` [Decoy341], the Type is listed as “Inactive (Decoy)”. In the case of `CCCC[C@@]1(c2ccc(F)cc2)NC(=O)N(CC(=O)Nc2ccc(S(=O)(=O)N(CC)CC)cc2)C1=O` [Decoy682], the Type is listed as “Inactive (Decoy)”. For `CCOC(=O)CNC(=O)[C@@H](c1ccc(F)cc1)N(C(=O)c1snc(C(N)=O)c1N)c1ccccc1F` [Decoy587], the Type is listed as “Inactive (Decoy)”. In the case of `O=C(CSc1n[nH]c(N/N=C/c2ccc(OCc3ccc(F)cc3)o2)n1)Nc1nccs1` [Decoy487], the Type is given as “Inactive (Decoy)”. In the case of `COc1ccc2[nH]cc(CCN/C(=N\C(=O)CS[C@H]3N=N[C@@H](N)S3)Nc3nc(C)cc(C)n3)c2c1` [Decoy359], the Type is given as “Inactive (Decoy)”. In the case of `CCOC(=O)c1c(NC(=O)c2ccc([N+](=O)[O-])cc2)sc2c(OCCN(CC)CC)c(Br)ccc12` [Decoy671], the Type is given as “Inactive (Decoy)”. For `NC(=O)CSc1nnc(NC(=O)CSc2nnc(N/N=C/c3cccc4ccccc34)n2N)s1` [Decoy376], the Type is listed as “Inactive (Decoy)”. In the case of `C=C(CCO)C(=O)OC[C@H]1OC[C@H](OC(=O)C(=C)CCO[C@@H]2O[C@H](COC(=O)C(=C)CCO)[C@@H](O)[C@H](O)[C@H]2O)[C@@H](O)[C@H]1O` [Decoy493], the Type is given as “Inactive (Decoy)”. In the case of `CCCCCO[C@@H]1[C@H]2OC(C)(C)O[C@H]2O[C@@H]1[C@@H](O)CO[C@@H]1O[C@H](COC(C)=O)[C@@H](OC(C)=O)[C@H](OC(C)=O)[C@H]1NC(C)=O` [Decoy443], the Type is listed as “Inactive (Decoy)”. For `CCCCCCCCCCC/C=C/C(=O)N[C@H]1[C@@H](O[C@H]2O[C@@H](CO)[C@@H](O)[C@@H](O)[C@H]2NC(C)=O)O[C@@H](C[C@H](O)[C@H]2O[C@@H](n3ccc(=O)[nH]c3=O)[C@@H](O)[C@H]2O)[C@@H](O)[C@H]1O` [Decoy557], the Type is listed as “Inactive (Decoy)”. In the case of `O=C(O)c1cccc(NC(=O)[C@@H]2C[C@H](SS[C@@H]3CN[C@H](C(=O)Nc4cccc(C(=O)O)c4)C3)CN2)c1` [Decoy613], the Type is given as “Inactive (Decoy)”. In the case of `Cc1ccc(Nc2cc(C)nc3cc(C(F)(F)F)ccc23)c(Br)c1` [Decoy563], the Type is given as “Inactive (Decoy)”. In the case of `C[C@@H](OC(=O)CCC(=O)Nc1ccc(C(=O)OCC(=O)c2cccc([N+](=O)[O-])c2)cc1)C(=O)c1cccc(Cl)c1` [Decoy525], the Type is given as “Inactive (Decoy)”. In the case of `CCOc1ccc(-c2n[nH]c3c2[C@H](c2cc(OC)c(OC(C)=O)c(OC)c2)C(C#N)=C(N)O3)cc1` [Decoy509], the Type is listed as “Inactive (Decoy)”. For `COc1ccc(CCNC(=O)CN(c2ccc(F)cc2)S(=O)(=O)c2ccc(OC)c(OC)c2)cc1OC` [Decoy713], the Type is listed as “Inactive (Decoy)”. In the case of `O=C(O)C[C@H](NC(=O)CN(CCN(CC(=O)O)CC(=O)N[C@@H](CC(=O)O)C(=O)O)CC(=O)O)C(=O)O` [Decoy356], the Type is given as “Inactive (Decoy)”.
